Experimental data from patent US4626547A, “Antibiotic AM-2604-A, an anti-trichomonas agent, anti-caccidium agent, anti-viral agent and anti-fungal agent containing the same and methods of use of the same” (The Kitasato Institute, priority 1982, dated 1986).
≈ marks a conversion by molar mass, not a printed value. Entries after “also recorded” stand apart in the source; their conditions may differ.

Legend:
[1] = tested on: Newcastle disease virus (NDV); experiment: microbe, parasite or virus in culture; type: cell-based; conditions: avian paramyxovirus 1, 96 h; read-out: 50% Effective Dose (ED50)
[2] = tested on: IHD strain of vaccinia virus (Vac-IHD); experiment: microbe, parasite or virus in culture; type: cell-based; conditions: Orthopoxvirus vaccinia, 96 h; read-out: 50% Effective Dose (ED50)
Sindbis virus (Sb) = experiment: Antiviral plaque-formation reduction in CE cells; type: cell-based; conditions: 48 h, 20 h pretreatment, 2 days, read-out: 50% Effective Dose (ED50)
[3] = tested on: Herpes virus Type No. 2 (HSV-2); experiment: Antiviral plaque-formation reduction in CE cells; type: cell-based; conditions: Human alphaherpesvirus 2, 72 h, 20 h pretreatment, 3 days, read-out: 50% Effective Dose (ED50)
Xanthomonas oryzae = experiment: microbe, parasite or virus in culture; type: cell-based
[4] = tested on: Western equine encephalitis virus (WEE); experiment: microbe, parasite or virus in culture; type: cell-based; conditions: 48 h, read-out: 50% Effective Dose (ED50)
[5] = tested on: Herpes virus Type No. 1 (HSV-1); experiment: Antiviral plaque-formation reduction in CE cells; type: cell-based; conditions: Human alphaherpesvirus 1, 72 h, 20 h pretreatment, 3 days, read-out: 50% Effective Dose (ED50)
Eimeria tenella = experiment: Effectiveness on coccidium-infected chicken; type: in vivo, white leghorn male chicks infected with Eimeria tenella; conditions: for Disorder of Cecum, grade - (Normal): chicks per group with grade -; for Disorder of Cecum, grade ± (Minor): chicks per group with grade ±; for Ratio of Increment of Weight: non-infected control = 1.00
Experimental: The potency of the antibiotic substance on coccidium-infected chickens was determined as follows:
Two-week-old white leghorn male chicks were divided into four groups of ten each. The feed used in this assay was a commercially available chick-breeding standard feed (major components: 19% crude protein, 2.5% crude fat, 5.0% crude fiber, 8.0% crude ash, 0.7% calcium, and 0.55% phosphorus).
One day after the start of feeding, 2×10^4 mature oocysts of Eimeria tenella per chick were orally administered to the chicks of the groups (Groups 1, 2 and 3) except for a non-infected control group (Group 4). Thereafter, the chicks of Groups 1 and 2 were bred by feeding the standard feed containing 0.005% and 0.0l% of the antibiotic substance, respectively, and Groups 3 and 4 were bred by feeding only the standard feed.
During the breeding period, the weight of each chick was measured, and the blood in the feces was observed. Furthermore, the number of oocysts in the feces 7 days after the infection of the oocysts were counted, and the disorder of cecum was examined by necropsy. In this way, the anti-coccidium action of the antibiotic substance was determined.
The items in Table 3 are as follows: [formula]
The amount of blood from the intestine of the chick is judged from the number of blood stains.
+ Minor, but slight disorder is observed.
++ Moderate hypertrophy is observed.
+++ Serious (disorder is very significant)
Number of oocysts per gram of the feces 7 days after the infection

Gram-negative bacteria = experiment: Antibacterial activity against Gram-negative bacteria (summary); type: cell-based
[6] = tested on: DIE strain of vaccinia virus (Vac-DIE); experiment: microbe, parasite or virus in culture; type: cell-based; conditions: Orthopoxvirus vaccinia, 96 h; read-out: 50% Effective Dose (ED50)
[7] = Toxicity testing, intraperitoneal injection; conditions: mouse, in vivo, ip, mice
Experimental: The toxicity testing of the antibiotic AM-2604-A substance was performed using mice by the intraperitoneal injection method.

Solubility in solvents = type: physicochemical
[8] = tested on: Vesicular stomatitis virus (VSV); experiment: microbe, parasite or virus in culture; type: cell-based; conditions: 48 h, read-out: 50% Effective Dose (ED50)
Gram-positive bacteria = experiment: Antibacterial activity against Gram-positive bacteria (summary); type: cell-based
[9] = tested on: Proteus vulgarius IFO 3167; experiment: MIC by agar dilution method; type: cell-based
Excerpt: (§1) The minimum inhibitory concentrations (MIC) of the antibiotic substance as determined by the agar dilution method are shown in Table 1 below.

Saccharomyces sake = experiment: MIC by agar dilution method; type: cell-based
Excerpt: as §1

Microsporum gypseum = experiment: MIC by agar dilution method; type: cell-based; conditions: Nannizzia gypsea
Excerpt: as §1

Botrytis cinerea = experiment: MIC by agar dilution method; type: cell-based
Excerpt: as §1

Candida albicans = experiment: MIC by agar dilution method; type: cell-based
Excerpt: as §1

Monilinia fructicola = experiment: MIC by agar dilution method; type: cell-based
Excerpt: as §1

Aspergillus niger = experiment: MIC by agar dilution method; type: cell-based
Excerpt: as §1

Escherichia coli NIHJ = experiment: MIC by agar dilution method; type: cell-based
Excerpt: as §1

Fusarium oxysporum = experiment: MIC by agar dilution method; type: cell-based
Excerpt: as §1

[10] = tested on: Micrococcus luteus ATCC 9341; experiment: MIC by agar dilution method; type: cell-based; conditions: ATCC9341
Excerpt: as §1

[11] = tested on: Bacillus subtilis ATCC 6633; experiment: MIC by agar dilution method; type: cell-based; conditions: ATCC6633
Excerpt: as §1

Mucor racemosus = experiment: MIC by agar dilution method; type: cell-based
Excerpt: as §1

[12] = tested on: Mycobacterium smegmatis ATCC 607; experiment: MIC by agar dilution method; type: cell-based; conditions: Mycolicibacterium smegmatis, ATCC607
Excerpt: as §1

[13] = tested on: Staphylococcus aureus ATCC 65389; experiment: MIC by agar dilution method; type: cell-based; conditions: ATCC65389
Excerpt: as §1

[14] = tested on: Trichophyton interdigitale; experiment: MIC by agar dilution method; type: cell-based
Excerpt: as §1

Alternaria kikuchiana = experiment: MIC by agar dilution method; type: cell-based
Excerpt: as §1

fungi [15] = experiment: Antifungal activity (summary); type: cell-based
DNA or RNA viruses = experiment: Antiviral activity (summary); type: cell-based, virus
Piricularia oryzae = experiment: microbe, parasite or virus in culture; type: cell-based
Trichomonas foetus = experiment: Infection-therapy test of Trichomonas foetus-infected mice; type: in vivo, mice infected with Trichomonas foetus; conditions: for Number of Mice That Died / Cured Mice / Living Mice with Formation of Ascites / Mice with Trichomonas foetus: oral; for Cured Mice / Living Mice with Formation of Ascites / Mice with Trichomonas foetus: 7 days
Experimental: An infection-therapy test of Trichomonas foetus-infected mice was performed as follows:
Mice were divided into groups of ten. Trichomonas foetus was cultivated at 37° C. on a Trichocel broth with 5% inactivated calf serum added (produced by BBL Co.) for 48 hours. One milliliter of the Trichomonas foetus-containing solution (4×10^6 cells/ml) was injected intraperitoneally into mice having a weight of about 20 g. […]
The infection-therapy effect was judged as follows:
Seven days after the injection of Trichomonas foetus, the formation of ascites was examined. In the case of mice in which ascites was formed, the ascites were taken out and the presence of Trichomonas foetus was examined using a microscope.

fungi [16] = conditions: known antibiotic substances, literature; cited from earlier work
[17] = drug amount administered 4 mg/kg
[18] = drug amount administered 8 mg/kg

C/C=C/C1OC(O)(C(C)C(O)C(C)C2OC(=O)C(OC)=CC(C)=CC(C)C(O)C(CC)C(O)C(C)CC(C)=CC=CC2OC)CC(OC(=O)/C=C/C(=O)NC2=C(O)CCC2=O)C1C (stereo not shown) [AM-2604-A]
EC50 [1]: 0.0003 µg/mL (≈ 0.000339 µM) | EC50 [2]: 0.0003 µg/mL (≈ 0.000339 µM) | EC50 (Sindbis virus (Sb)): 0.0005 µg/mL (≈ 0.000564 µM) | EC50 [3]: 0.0003 µg/mL (≈ 0.000339 µM) | MIC (Xanthomonas oryzae): > 50 µg/mL | EC50 [4]: 0.0003 µg/mL (≈ 0.000339 µM) | EC50 [5]: 0.0003 µg/mL (≈ 0.000339 µM) | Increment of Weight (Eimeria tenella; Group 1, 0.005% in feed): 1.83 | Disorder of Cecum, grade + (Minor, but slight disorder is observed) (Eimeria tenella; Group 1, 0.005% in feed, chicks per group with grade +): 1/10 | Disorder of Cecum, grade - (Normal) (Eimeria tenella; Group 1, 0.005% in feed): 8/10 | Disorder of Cecum, grade ± (Minor) (Eimeria tenella; Group 1, 0.005% in feed): 1/10 | Ratio of Increment of Weight (Eimeria tenella; Group 1, 0.005% in feed): 0.99 | Increment of Weight (Eimeria tenella; Group 2, 0.01% in feed): 1.86 | Number of Oocysts (on the average) (Eimeria tenella; Group 2, 0.01% in feed, 7 days after the infection): 0 per gram of the feces | Disorder of Cecum, grade - (Normal) (Eimeria tenella; Group 2, 0.01% in feed): 9/10 | Disorder of Cecum, grade ± (Minor) (Eimeria tenella; Group 2, 0.01% in feed): 1/10 | Ratio of Increment of Weight (Eimeria tenella; Group 2, 0.01% in feed): 1.01 | anticoccidium action (in words) (Eimeria tenella; summary of Table 3): excellent anticoccidium action; also recorded: active | activity against Gram-negative bacteria (in words) (Gram-negative bacteria): little antibacterial activity | EC50 [6]: 0.0003 µg/mL (≈ 0.000339 µM) | LD50 [7]: 3 mg/kg | Solubility in organic solvents such as chloroform, acetone, and ethyl acetate (Solubility in solvents; chloroform, acetone, ethyl acetate): Soluble | Solubility in lower alcohols (Solubility in solvents; lower alcohols): sparingly soluble | Solubility in n-hexane and water (Solubility in solvents; n-hexane and water): insoluble | EC50 [8]: 0.0003 µg/mL (≈ 0.000339 µM) | activity against Gram-positive bacteria (in words) (Gram-positive bacteria): little antibacterial activity; also recorded: almost inactive | MIC [9]: > 100 µg/mL | MIC (Saccharomyces sake): 100 µg/mL (≈ 113 µM) | MIC (Microsporum gypseum): 50 µg/mL (≈ 56.4 µM) | MIC (Botrytis cinerea): > 50 µg/mL | MIC (Candida albicans): > 100 µg/mL | MIC (Monilinia fructicola): 12.5 µg/mL (≈ 14.1 µM) | MIC (Aspergillus niger): > 100 µg/mL | MIC (Escherichia coli NIHJ): > 100 µg/mL | MIC (Fusarium oxysporum): > 100 µg/mL | MIC [10]: > 100 µg/mL | MIC [11]: > 100 µg/mL | MIC (Mucor racemosus): 50 µg/mL (≈ 56.4 µM) | MIC [12]: > 100 µg/mL | MIC [13]: > 100 µg/mL | MIC [14]: 50 µg/mL (≈ 56.4 µM) | MIC (Alternaria kikuchiana): > 50 µg/mL | activity against fungi (in words) (fungi [15]): active | activity against viruses (in words) (DNA or RNA viruses): high inhibitory activity; also recorded: active | MIC (Piricularia oryzae): 12.5 µg/mL (≈ 14.1 µM) | Number of Mice That Died (Trichomonas foetus; [17]): 2/10 | Cured Mice (Trichomonas foetus; [17]): 5/10 | Living Mice with Formation of Ascites (Trichomonas foetus; [17]): 2/10 | Mice with Trichomonas foetus (Trichomonas foetus; [17]): 5/10 | Number of Mice That Died (Trichomonas foetus; [18]): 1/10 | Cured Mice (Trichomonas foetus; [18]): 8/10 | Living Mice with Formation of Ascites (Trichomonas foetus; [18]): 1/10 | Mice with Trichomonas foetus (Trichomonas foetus; [18]): 2/10 | anti-trichomonas action (in words) (Trichomonas foetus; summary of Table 4): excellent anti-trichomonas action; also recorded: active

COC1=CC(C)=CC(C)C(O)C(C)CC(C)=CC=CC(OC)C(C(C)C(O)C(C)C2(O)CC(OC(=O)/C=C/C(=O)NC3=C(O)CCC3=O)C(C)C(C(C)C)O2)OC1=O (stereo not shown) [Setamycin]
activity against fungi of known antibiotics (in words) (fungi [16]): active
